Values of other authors, collected in patent US6270797A (USV Limited, priority 2000, dated 2001).

Tests used:
[1] = system: insulin receptors
[2] = system: beta cells of pancreatic-islet tissue

## Cc1cnc(C(=O)NCCc2ccc(S(=O)(=O)NC(=O)NC3CCCCC3)cc2)cn1 [Glipizide, 1-cyclohexyl-3-[[p-[2-(5-methylpyrazinecarboxamido)ethyl]phenyl]sulfonyl]urea]
[1]
  number of insulin receptors: may increase the number of insulin receptors
[2]
  insulin secretion from the beta cells of pancreatic-islet tissue: stimulates insulin secretion
